Reference: US5298491A, “Derivatives of endogenous mediators, their salts, method of preparation, applications and compositions in which they are present” (priority 1990, dated 1994)
Entries after “also recorded” stand apart in the source; their conditions may differ. Read-outs that look alike come from different tables or passages of the source.

Key:
[1] = test system: 5-HT1D sites; experiment: Labelling of substantia nigra in monkey brain sections (autoradiography); format: binding, monkey (Macacca mulatta n.); details: 1 nM [3H]8-OH-DPAT
Description: (§1) A male monkey (Macacca mulatta n.) weighing 8 kg was sacrificed by means of an overdose of barbiturates and exsanguination. […] The right hemisphere is cut out and frozen by isopentane cooled in liquid nitrogen. The block is stored at -20° C. […] They are stored at -20° C. until required.
(§2) Some of the sections are incubated under identical conditions except that the radioactive probe is replaced either with 2 nM [^3 H]5-HT, or with 2 nM [^3 H]5-HT in the presence of 100 nM 8-hydroxy-2-[di-N-propylamino]tetralin (8-OH-DPAT) and 100 nM mesulergin, or with 1 nM [^3 H]8-OH-DPAT. After rinsing 2 x for 1 minute in distilled water, the sections are dried.
(§3) The slides are affixed to a tritium-sensitive film for 8 days. The film is developed for 6 minutes in D19, rinsed and fixed.

[2] = molecular target: T1, 5-HT1A sites (Macaca mulatta, UniProt F7GIU0); experiment: Labelling of hippocampus in monkey brain sections (autoradiography); format: binding, monkey (Macacca mulatta n.)
T1 sequence (F7GIU0 1-421): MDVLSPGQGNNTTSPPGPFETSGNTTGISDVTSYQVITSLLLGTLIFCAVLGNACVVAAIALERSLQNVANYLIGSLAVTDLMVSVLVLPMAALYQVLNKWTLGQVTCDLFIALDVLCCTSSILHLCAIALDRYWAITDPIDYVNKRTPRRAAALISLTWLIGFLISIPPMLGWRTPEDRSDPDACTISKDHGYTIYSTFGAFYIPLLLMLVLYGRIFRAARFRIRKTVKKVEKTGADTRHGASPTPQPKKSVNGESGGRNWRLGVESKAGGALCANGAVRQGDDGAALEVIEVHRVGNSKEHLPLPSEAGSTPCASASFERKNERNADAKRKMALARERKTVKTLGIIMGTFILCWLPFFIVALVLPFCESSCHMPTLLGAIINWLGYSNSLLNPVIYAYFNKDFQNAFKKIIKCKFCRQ
Description: (§4) A male monkey (Macacca mulatta n.) weighing 8 kg was sacrificed by means of an overdose of barbiturates and exsanguination. […] The right hemisphere is cut out and frozen by isopentane cooled in liquid nitrogen. The block is stored at -20° C. 10 μm thick sections are prepared in a cryostat at -20° C. and placed on gelatin-coated slides (Segu et al., 1990, J. Neurosci. Meth., 31, 197). They are stored at -20° C. until required.
(§5) The sections are preincubated for 1 h at 4° C. in a Krebs solution (mM: NaCl, 118; KCl, 4.5; CaCl2, 1.2; MgCl2, […]; Tris, 15; pH 7.4) in order to remove the endogenous ligands. They are then incubated at 20° C. for 60 minutes in a solution containing 10^-5 M pargyline, 57 mM ascorbic acid, 10 g/l of bovine serum albumin and 0.02 nM S--CM-G[^125 I]TNH2, alone or in the presence of increasing concentrations of serotonin. Some of the sections are incubated under identical conditions except that the radioactive probe is replaced either with 2 nM [^3 H]5-HT, or with 2 nM [^3 H]5-HT in the presence of 100 nM 8-hydroxy-2-[di-N-propylamino]tetralin (8-OH-DPAT) and 100 nM mesulergin, or with 1 nM [^3 H]8-OH-DPAT. After rinsing 2 x for 1 minute in distilled water, the sections are dried.
(§6) The slides are affixed to a tritium-sensitive film for 8 days. […] The autoradiographs are quantified with a video system for image analysis (Segu et al., 1990).

[3] = test system: receptor binding sites with a high affinity for serotonin (5-HT1); experiment: Displacement, by the derivatives S-CM-R, of the high affinity binding of [3H]5-HT in rat brain sections; details: 2 nM [3H]5-HT
Source text: The distribution of the receptor binding sites with a high affinity for serotonin (5-HT1) is heterogeneous in the central nervous system of the rat (Pazos and Palacios, Brain Research, 346, 1985, p. 205-230; Segu et al., Brain Research, 384, 1986, p. 205-217). Furthermore, the content of subtypes of 5-HT1 sites varies according to the anatomical structure in question.
The protocol for preparing the brain sections is common to all the studies which follow. The animals are decapitated after anaesthesia with chloral hydrate (400 mg/kg of gross weight). The brains are quickly removed from the skull and frozen by immersion in isopentane cooled by liquid nitrogen. 20 μm sections, prepared in a cryostat at -20° C., are mounted on gelatin-coated slides and stored at -20° C.
The sections are preincubated for 1 hour at 4° C. in a Krebs solution (NaCl 118 mM; KCl 4.8 mm; CaCl2 1.2 mM; MgCl2 1.2 mM; Tris-HCl 15 mM, pH 7.4) in order to remove the endogenous ligands.
1. Displacement, by the derivatives S-CM-R, of the high affinity binding of serotonin in rat brain sections
The incubations take place for 60 minutes at 20° C. in a Krebs solution containing 10 μM pargyline, 5.7.10^-4 M ascorbic acid, 2 nM [^3 H]5-HT (NEN, As=30 Ci/mmol) and increasing concentrations of derivatives S-CM-R. The non-specific binding is determined on homothetic sections under the same conditions, but in the presence of 10^-5 M 5-HT.
After incubation, the sections are rinsed three times for 20 seconds in distilled water and dried by a stream of hot air. The sections are affixed to a film (Amersham) for 6 weeks in the presence of a standard ([^3 H] microscale, Amersham). The films are developed for 6 minutes with Kodak D19, rinsed and fixed with AL4 (Kodak). Quantitative analysis of the autoradiographs is performed with an image analysis system (Segu et al., J. Neurosci. Methods, 31, 1990, p. 197-208).

[4] = molecular target: T2, 5-HT1D sites (Macaca mulatta, UniProt F6SFA9); experiment: Displacement of S-CM-G[125I]TNH2 binding with serotonin in monkey brain sections; parameters: species or system monkey (Macacca mulatta n.); details: displacement of 0.02 nM S-CM-G[125I]TNH2, read-out: IC50 (concentration which inhibits 50% of the binding)
T2 construct: The right hemisphere is cut out and frozen by isopentane cooled in liquid nitrogen; from tissue; host or cells: rhesus monkey brain sections (right hemisphere, 10 μm, frozen), substantia nigra
T2 sequence (F6SFA9 1-390): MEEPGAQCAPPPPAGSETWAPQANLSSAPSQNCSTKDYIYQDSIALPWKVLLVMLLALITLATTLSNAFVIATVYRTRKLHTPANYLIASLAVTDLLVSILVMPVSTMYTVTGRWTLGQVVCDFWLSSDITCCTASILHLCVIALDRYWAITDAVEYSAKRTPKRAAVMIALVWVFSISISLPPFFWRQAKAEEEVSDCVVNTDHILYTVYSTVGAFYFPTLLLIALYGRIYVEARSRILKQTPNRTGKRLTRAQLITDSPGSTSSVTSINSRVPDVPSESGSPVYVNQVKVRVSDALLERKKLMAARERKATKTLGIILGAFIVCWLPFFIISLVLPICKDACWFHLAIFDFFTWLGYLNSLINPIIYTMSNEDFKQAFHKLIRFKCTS
Description: as §4, §5, §6

[5] = molecular target: T2, 5-HT1D sites; experiment: Labelling of substantia nigra in monkey brain sections (autoradiography); format: binding, monkey (Macacca mulatta n.)
Description: as §1, §2, §3

[6] = Passage across the blood-brain barrier after intracardiac injection (brain autoradiography); format: in vivo, mice and guinea-pigs; details: intracardiac injection; 10 minutes; conclusion
Description: 2 mice and 2 guinea-pigs are deeply anaesthetized with chloral hydrate (intraperitoneal injection of 0.12 ml of a 35% solution per 100 g of body weight).
The mice and guinea-pigs receive intracardiac injections of 200 μl and 1.5 ml, respectively, of S--CM-G[^125 I]TNH2.
After 10 minutes, the animals, still under deep anaesthesia, are decapitated and the brains are frozen and stored as indicated in Example 1.
Sections are prepared and autoradiography is carried out as described in Example 1.

[7] = 60 min at 20° C, single IC50, read-out: IC50 (displacement of specific binding of [3H]5-HT)
[8] = two-phase process, first site, read-out: IC50 for the first site (displacement of [3H]5-HT)
[9] = two-phase process, second site, read-out: IC50 for the second site (displacement of [3H]5-HT)

Row | Molecule | phases of displacement of [3H]5-HT specific binding [3] | IC50 [3, 7] | IC50 [3, 8] | IC50 [3, 9] | also measured
1 | CCCN(CCC)C1CCc2cccc(O)c2C1 (stereo not shown) [[^3 H]8-OH-DPAT, 8-hydroxy-2-[di-N-propylamino]tetralin] |  |  |  |  | labelling of the substantia nigra [1]: not the substantia nigra; labelling of the hippocampus ([2]; 1 nM [3H]8-OH-DPAT): intense labelling; also recorded: showing the 5-HT1A sites exclusively located in the hippocampus
2 | NCCc1c[nH]c2ccc(O)cc12 [5-HT, reference compound] | one-phase process | 2 nM |  |  | IC50 [4]: ~5 nM
3 | NCCc1c[nH]c2ccc(OCC(=O)N[C@@H](Cc3ccc(O)cc3)C(=O)NCC(N)=O)cc12 [S-CM-Tyr-GlyNH2] | two-phase process |  | 20 nM | 400 nM | 
4 | NCCc1c[nH]c2ccc(OCC(=O)O)cc12 [S--CM] |  | 1000 nM |  |  | 
5 | [^3 H]5-HT [reference compound] |  |  |  |  | labelling of the substantia nigra ([5]; 2 nM [3H]5-HT): substantial labelling; also recorded: showing the total 5-HT1 sites in the hippocampus (H) and the substantia nigra (SN); labelling of the substantia nigra ([5]; 2 nM [3H]5-HT in the presence of 100 nM 8-OH-DPAT and 100 nM mesulergin): strong reaction with the substantia nigra; also recorded: showing the 5-HT1B sites virtually exclusively located in "the substantia nigra; labelling of the hippocampus ([2]; 2 nM [3H]5-HT): substantial labelling; also recorded: showing the total 5-HT1 sites in the hippocampus (H)
6 | NCCc1c[nH]c2ccc(OCC(=O)NCC(=O)N[C@@H](Cc3ccc(O)cc3)C(N)=O)cc12 [S-CM-GTNH2, tryptamine-5-O-carboxymethylglycyltyrosinamide] | two-phase process |  | 20 nM | 400 nM | passage across the blood-brain barrier [6]: unable to pass through the blood-brain barrier
